Data from patent publication US20240101664A1, “TREATMENT OF PERITONEAL, PLEURAL, AND PERICARDIUM ADHESIONS” (UTI LIMITED PARTNERSHIP, priority 2020, published 2024).

Assays:
[1] = tested on: Gata6+ cavity macrophages; experiment: Open-pouch intravital microscopy: cavity macrophage recruitment/aggregation at transmesothelial laser injury; assay type: in vivo, mouse; conditions: for number of macrophages attaching/aggregating at the injury (normalized macrophage count): 30 min post transmesothelial laser injury, intraperitoneal treatment 20 min before
Method: The following neutralizing antibodies (versus isotype controls) and reagents were intraperitoneally tested for their effect on macrophage recruitment: anti-mouse CD18 (100 μg per mouse, GAME-46, BD Pharmingen)+anti-mouse CD29 (100 μg per mouse, HM β31-1, BD Pharmingen) versus isotype rat IgG1, κ (100 μg per mouse, BioXcell)+hamster IgG (100 μg per mouse, eBioscience); anti-mouse CD162 (100 μg per mouse, 4RA10, BD Pharmingen) versus isotype rat IgG1 (100 μg per mouse, eBioscience); anti-human CD9 (10 μg per mouse, ALB 6, Santa Cruz) versus isotype mouse IgG1 (BD Biosciences). Heparin (Sandoz) was diluted in sterile saline to reach final dose of 100-1000 U per mouse. Argatroban (Sigma-Aldrich) was dissolved in DMSO at 20 mg/ml and diluted with saline to reach a final concentration of 300 μg per mouse. Hirudin (Multiplate Hirudin Blood Tube, Roche) was dissolved in saline and injected intraperitoneally at a dose of 1 tube per mouse. Polyinosinic acid (poly(I)) and polycytidylic acid (poly(C)) were purchased as potassium salt (Sigma-Aldrich) and dissolved in double-distilled water according to manufacturer's instructions to 5 mg/ml and 20 mg/ml, respectively. Immediately before experiments, the poly(C) stock solution was diluted with double-distilled water to a final concentration of 5 mg/ml. Both poly(I) and poly(C) were then diluted with saline to reach a final dose of 250 μg per mouse. A total of […] Anti-mouse Marco antibody (ED31, Biorad MCA1849) versus rat IgG1 Isotype control (eBRG1, eBioscience 16-4301-85) was injected intraperitoneally in a total volume of 140 μl PBS per mouse. A volume of 100 μl anti-mouse thrombocyte depletion serum (Cedarlane, CLAD31440) versus normal rabbit serum (Cedarlane, CLSD403) was injected intra venously 24 hours before imaging.
Mice used for IVM were 8-10 weeks old weighted an average of 20 g. Mice in each experiment were of the same sex. If not specified otherwise, mice were generally treated pharmacologically or with neutralizing antibodies 20 min before imaging. Mice were anesthetized with a mixture of ketamine hydrochloride (200 mg/kg, Rogar/SBT) and xylazine hydrochloride (10 mg/kg, MTC Pharmaceuticals). After anesthesia, the tail vein was cannulated for administration of additional anesthetic, antibodies, or other reagents in certain experiments.
The pouch model IVM (FIG. 1) was prepared with the mouse in supine position. Thermal support was given with a heated stage to maintain 37° C. body temperature. The fur and skin above the ventral abdominal wall were aseptically cleaned with 70% ethanol and then removed. Care was taken not to open the peritoneal cavity. If the peritoneal cavity was accidentally opened, the mouse was immediately euthanized. Staining antibody or dye was intraperitoneally injected with a 28G needle in midline about 10 mm above the symphysis. After withdrawing the needle, a suture was placed to seal the hole caused by the injection. This suture was then used to immobilize a part of the peritoneum onto the coverslip. For this, the mouse was placed in a semi-prone position. Placing a cotton tip with slight top to bottom pressure helped to further increase imaging stability yet preserved a connection between the imaging pouch and peritoneal cavity so that peritoneal fluid movement was preserved. The closed pouch was prepared by applying more pressure on the cotton tip which allowed us to separate the pouch from the peritoneal cavity in terms of fluid movement. After IVM, all mice were immediately euthanized.
Images were exported as uncompressed .tif files and analyzed using ImageJ (55). Tracking was generally performed in an automated fashion using the TrackMate plugin (56). The cell shown in FIG. 1J was tracked manually. Cell counts and injury size was measured manually in ImageJ. Three-dimensional visualizations and volume quantifications were performed in Imaris software. […]

[2] = tested on: macrophage disappearance reaction; conditions: intraperitoneal administration; hypersensitivity reaction or Escherichia coli; cited from earlier work
[3] = tested on: peritoneal cavity macrophages; experiment: Aggregometry of isolated peritoneal macrophages; assay type: cell-based, mouse; conditions: 37° C., 400 rpm
Method: Macrophages were isolated by peritoneal lavage as described above with the use of 2 mM EDTA containing HBSS instead of PBS. Macrophages were centrifuged at 300 g for 5 min in a 50-ml polystyrene tube. The pellet (with approximately 100 μl of fluid remaining with 3×10^6 cells) was diluted in HBSS containing 2 mM Ca^2+ to a final volume of 400 μl. It was then transferred to a aggregometry cuvette, which was warmed to 37° C. and continuously stirred (400 rpm). Light transmission was recorded on a 700 Whole Blood/Optical Lumi-Aggregometer (Chrono-log) and was expressed in arbitrary units with buffer representing 100% transmission and washed macrophage suspension 0% transmission, respectively. Agonists and calcium were added to reach a Ca^2+ concentration of 4 mM total or 2 mM free calcium in a buffer containing 2 mM EDTA. The preparation of platelet aggregometry was performed as previously described (53). Washed platelets (50 μl with 5×10^5 platelets per microliter) were diluted into 110 μl of Tyrode-HEPES buffer containing 2 mM Ca^2+ and 100 μg/ml human fibrinogen. Agonists (ATP, thrombospondin) were added at the indicated concentrations to the continuously stirred platelet suspension. Murine neutrophils were isolated from the bone marrow of wild-type C57Bl/6, mice as previously described (46). Briefly, bone marrow was collected from the femurs and tibias of euthanized mice, and neutrophils were isolated using a discontinuous Percoll gradient consisting of a Percoll solution (9 ml of Percoll and 1 ml 10× of HBSS) diluted to 72%, 64%, and 52% in 1×HBSS. Following centrifugation, the neutrophil band was removed and washed in HBSS. Cell pellets were resuspended in HBSS containing either 2 mM Ca2^+ or EDTA. Aggregometry was performed as described above.

[4] = tested on: focal thermal injury of the parietal peritoneum; experiment: Peritoneal focal thermal injury healing; assay type: in vivo, mouse; conditions: 3 days after injury; wound area and mesothelial coverage; poly(C) control
Method: Abdominal-wall-flap IVM was used to visualize the mesothelium and epigastric blood vessels (FIG. 2A, FIG. 3, F-I). Mice were placed in supine position on heated stage to maintain 37° C. body temperature. The fur and skin above the ventral abdominal wall were removed and then aseptically cleaned with 70% ethanol. Staining antibodies (anti-mouse podoplanin and anti-mouse F4/80 as described above) were injected. After mice were incubated for 10 min on a heated stage, the peritoneum was incised with an inverted U-shaped incision ranging from directly below the xyphoid process to the inguinal ligament on both sides. This created a perfused flap of peritoneum and the rectus abdominis muscles. The flap was washed with 1 ml of PBS and placed directly on the glass coverslip of the heated stage for imaging of abdominal wall or epigastric blood vessels.
(§1) For surgical procedures, mice were 8-12 weeks old with a body weight >20 g. Mice in each experiment were of the same sex. Mice were treated before surgery with poly(I), poly(C), liposomes, or diphtheria toxin as described above. Anesthesia was induced and maintained with isoflurane. Eye lubricant was topically applied and buprenorphine (0.1 mg/kg) was subcutaneously administered.
The peritoneal focal thermal injury was adapted from the focal thermal liver injury that was previously described (46). The skin was incised in midline. […]

[5] = tested on: focal thermal lesions of liver; experiment: Focal thermal hepatic injury healing; assay type: in vivo, mouse; conditions: 7 d after injury
Method: Intravital liver imaging was performed as previously described (45). Exposed tissues were visualized with a Leica SP8 DIVE inverted microscope equipped with 4 Tune, a tunable in vivo detection system and a multiphoton light path. All images shown here were acquired using a HC FLUOTAR L 25×/0.95 W objective with water as immersion medium and 2× digital zoom. Fluorescent moieties were excited with a tunable InSight ×3 ultrafast laser (Spectra-Physics) at 800-1000 nm. Signal was detected using external, extremely sensitive non-descanned hybrid detectors. Second harmonic generation by collagen was recorded by tuning the detector to excitation wavelength divided by two ±20 nm. Leica LAS X software was used to drive the microscope.
as §1
Focal thermal injury in the liver was performed as previously described (49). In brief, a mini-laparotomy was made just below the xyphoid to expose the liver. Three focal injuries were induced on the surface of the liver using the tip of a heated 30G needle mounted on an electrocautery device. […]

peritoneal adhesions = experiment: Peritoneal-button injury model of post-surgical peritoneal adhesions; assay type: in vivo, mouse
Method: as §1
For the peritoneal button injuries, skin was incised in midline. The peritoneal cavity was accessed through midline laparotomy. Standardized lesions were induced as previously described (47). In brief, a small portion of the peritoneum was grasped and ligated at its base using 4-0 Prolene suture (Ethicon), creating a standardized peritoneal button. This was repeated for a total of four buttons, one in each quadrant. Finally, peritoneum and skin were sutured with 6-0 Prolene (Ethicon) running suture.
Prior to sacrifice, mice were anesthetized (10 mg/kg xylazine hydrochloride and 200 mg/kg ketamine hydrochloride). Laparotomies were performed in an inverted U-shape. Adhesion were scored based on their tensile strength and vascularization (Table 2) as previously described (51). The animal was subsequently euthanized and perfused with 2 mM EDTA and 4% PFA containing PBS. Peritoneal buttons/adhesions were excised and post-fixated in 4% PFA containing PBS for 2-4 hours. Tissue staining and clearing was performed as previously described (52). […] Then the biopsies were incubated with fluorescently conjugated monoclonal antibodies for 1-4 days at 4° C. on a rotation device. […] Signal was detected using external, non-descanned hybrid detectors. Second harmonic generation by collagen was recorded by tuning the detector to excitation wavelength divided by two ±20 nm. […]
Mouse peritoneal lavage was performed in anesthetized animals by injection and aspiration of three times 5 ml of sterile ice-cold PBS containing 2 mM EDTA into the peritoneal cavity and subsequent retrieval. […] Samples were run using BD FACS Canto flow cytometer and analyzed using FlowJo software (Tree Star). […]

[6] = tested on: cells isolated from abdominal cavity (peritoneal fluid sample); experiment: Aggregometry of human peritoneal fluid cells; assay type: cell-based; conditions: ATPgs 100 uM, CaCl 2 mM, Poly(I)/Poly(C) 2 mg/ml; phase contrast
Method: Cells were isolated from abdominal cavity by laparotomy or laparascopy, lavaged with 200 ml saline and stored on ice. The cell samples were transferred through 70 um filters into 50 ml falcon tubes and spun at 300 g for 5 min at 4 degree. The pellet was resuspended in HBSS without Ca and without Mg. For aggregometry cells were exposed to: EDTA final concentration 2 mM; ATPgs final concentration 100 uM; CaCl final concentration 2 mM; and Poly(I)/Poly(C) final concentration 2 mg/ml. The final volume of 100 uL was attained with HBSS. Cells from one patient were exposed to three different conditions: EDTA alone (negative control); ATP/Poly(C); ATP/Poly(I). Image with phase contrast was captured (FIG. 14).

[7] = intravital imaging following poly(I) administration

## Heparin
[1]
  number of macrophages attaching/aggregating at the injury (normalized macrophage count): significantly reduced the number of attaching cells
[2]
  macrophage disappearance reaction: inhibit the macrophage disappearance reaction

## Polyinosinic acid [poly(I)]
[1]
  number of macrophages attaching/aggregating at the injury (normalized macrophage count): significantly decreased macrophage aggregation
[1]; [7]
  initial adhesion to the wound: left relatively intact
  macrophage-macrophage aggregate formation over time: significant decrease
[3]
  macrophage aggregation in vitro: prevent macrophage aggregation in vitro
[4]
  healing of focal thermal injury of the parietal peritoneum: prolonged healing
[5]
  healing of focal thermal lesions of liver: similarly affected
Peritoneal adhesions; 3 hours post-surgery, flow cytometry
  reduction of cavity macrophage numbers in the peritoneal lavage after surgery: only partially inhibited
Peritoneal adhesions; within 3 hours post-surgery
  recruitment of cavity macrophage aggregates from the peritoneal fluid to the buttons: could be reduced
Peritoneal adhesions; within 7 days post-surgery
  number and tenacity of peritoneal adhesions: significantly reduced
[6]
  aggregates of human peritoneal fluid cells: no aggregates

## Polycytidylic acid [Poly(C)]
[6]
  aggregates of human peritoneal fluid cells: large aggregate observed

## O=C(O)CN(CCN(CC(=O)O)CC(=O)O)CC(=O)O [EDTA]
[3]
  macrophage aggregation in vitro: inhibited

## Hirudin
[1]
  number of macrophages attaching/aggregating at the injury (normalized macrophage count): did not replicate this effect

## CC1CNc2c(cccc2S(=O)(=O)N[C@@H](CCCNC(=N)N)C(=O)N2CC[C@@H](C)C[C@@H]2C(=O)O)C1 (some centres unmarked) [argatroban, Argatroban]
[1]
  number of macrophages attaching/aggregating at the injury (normalized macrophage count): did not replicate this effect

## Nc1ncnc2c1ncn2[C@@H]1O[C@H](COP(=O)(O)OP(=O)(O)OP(=O)(O)O)[C@@H](O)[C@H]1O [adenosine triphosphate]
[3]
  macrophage aggregation in vitro: accelerate macrophage aggregation
